Ends that are not written are not given here.

This note sets out measurements from US20060178311A1, “Control of lactation” (Hannah Research Institute, priority 2003, published 2006).

The test system of this assay is mammary acini from tissue of lactating mice. Kind of assay: Mammary acini culture bioassay: secretion of [3H]leucine-labelled protein. The assay is classed as cell-based, mouse. Conditions: 0.01-10.0 μM, singly or in combination, 2 hours. As to the method:
Mammary cells were prepared from tissue of lactating mice by collagenase digestion according to the method of K Hendry, K Simpson, K Nicholas & C Wilde. Journal of Molecular Endocrinology 21: 169-177 (1998). The resultant suspension of mammary acini consisted predominantly of groups of 50-200 cells, and was cultured in medium (Medium 199/Ham's F12: 50:50 v/v) containing insulin (5 μg/ml), hydrocortisone (0.1 μg/ml) and prolactin (1 μg/ml). Culture density was 1.5×10^6 cells/ml, and cells were maintained at 37° C. in an atmosphere of 5% CO2 in air. Protein synthesis and secretion were measured by continuous labelling with L-[4.5-3H]leucine ([…]; 10-20 μCi/ml) for 2 hours in the presence or absence of milk fractions (at concentrations of 0.2-4.0 μg/ml) or synthetic peptides (0.01-10 μM). […] Radiolabel incorporation was measured by precipitation with trichloroacetic acid (final concentration 10% w/v). […]
The amount of radiolabelled protein secreted by acini in the presence of milk extracts or synthetic peptides was expressed as a percentage of that produced by the cells to which no milk fraction or peptide was added. […]
Protein secretion was measured in mammary acini cultures in the presence and absence of synthetic peptides. […]

Take “AVAVSQEAN (also: C-terminal cysteine) [Peptide B, nine amino acid synthetic peptide]”: the “effect of synthetic peptides on protein secretion” value is “stimulatory effect”.
With RPKHPIKHQG [Peptide A] the entry was “inhibitory action”.
